From ChEMBL document CHEMBL1126193, “Omega-[(omega-arylalkyl)thienyl]alkanoic acids: from specific LTA4 hydrolase inhibitors to LTB4 receptor antagonists” (J Med Chem, 1992) come the findings set out here.

Test [1] has as its system Leukotriene A-4 hydrolase (Sus scrofa). Briefly: Tested for 50% inhibition of LTA4 hydrolase at 2*10e-5M concentration in porcine leukocyte homogenates.
Test [2] has the same test system. Kind of test: Tested for Percentage inhibition of LTA4 hydrolase at 2*10e-5M concentration in porcine leukocyte homogenates.
The test system of test [3] is Leukotriene B4 receptor 1 (Cavia porcellus). Briefly: Percent inhibition of [3H]-LTB4 binding to guinea pig spleen Leukotriene B4 receptor at the concentration of 10e-5 M.
Test [4] is described as follows: compound was tested for 50% inhibition of LTA4 hydrolase at 2*10e-5M concentration in porcine leukocyte homogenates. Type of test: tissue-based, Sus scrofa.

In turn, `O=C(O)CCCCCCc1sccc1CCCc1ccccc1` came in with an inhibition in test [1] of 0%.

Molecule `COc1ccc(CCCc2cc(CCCCCCC(=O)O)cs2)cc1` showed an inhibition in test [2] of 68%. Same read-out and setting: to `O=C(O)CCCCCCc1sc(-c2ccccc2)cc1CCCc1ccccc1` belongs 0%.

Take `O=C(O)CCCCCCc1cc(-c2ccccc2)cs1`: the inhibition in test [1] was 25%; in test [3], 0%. `O=C(O)CCCCCCc1cc(Cc2ccccc2)cs1` came in with an IC50 in test [4] of 9600 nM. Further, the inhibition in test [1] amounted to 70%; in test [3], 33%. Take `O=C(O)CCCCCCc1ccsc1CCCc1ccc(Cl)cc1`: the inhibition in test [2] came out at 24%.

In test [4], `O=C(O)CCCCCCc1ccc(CCCc2ccccc2)s1` showed an IC50 of 2900 nM. Besides, in test [1], the inhibition was determined as 84%. Turning to `Cc1cc(CCCCCCC(=O)O)c(CCCc2ccccc2)s1`, the inhibition in test [2] came out at 0%. In turn, `O=C(O)CCCCCCc1ccsc1CCCc1ccccc1` showed an inhibition in test [1] of 0%. Take `O=C(O)CCCCCc1cc(CCCc2ccccc2)cs1`: the inhibition in test [1] came out at 32%; in test [3], 36%. `O=C(O)CCCCCCc1ccsc1C(=O)CCc1ccccc1`: the inhibition in test [3] is 17%.

`O=C(O)CCCCCCc1csc(CCCc2ccc(Cl)cc2)c1`: the inhibition in test [2] amounted to 73%.

Regarding `O=C(O)CCCCc1sccc1CCCc1ccccc1`, the inhibition in test [1] was 0%. On the same count and under the same terms, as for `O=C(O)CCCCCCc1csc(Cc2ccccc2)c1`, the figure is 68%. With `Cc1cc(C(=O)CCCCCC(=O)O)c(CCCc2ccccc2)s1`, in test [3], the inhibition was 51%. Same read-out and setting: to `O=C(O)CCCCCC(=O)c1sccc1CCCc1ccccc1` belongs 59%. `O=C(O)CCCCCCc1csc(CCCc2ccccc2)c1` had a half-inhibitory concentration (IC50) in test [4] of 1500 nM. Also, the values for the inhibition in test [1] and in test [3] were 100% and 10%, respectively. With `O=C(O)CCCCCCc1csc(CCCc2ccc(O)cc2)c1`, the inhibition in test [2] turned out to be 100%.

Turning to `O=C(O)CCCCCCc1cc(CCCCCc2ccccc2)cs1`, the inhibition in test [1] was found to be 49%; in test [3] it was 31%.

For the molecule `O=C(O)CCCCCCc1ccsc1CCc1ccccc1`, the inhibition amounted to 0% in test [1] and 38% in test [3].

For the molecule `O=C(O)CCCCCCc1sccc1Cc1ccccc1`, the inhibition was determined as 0% in test [1] and 15% in test [3].

For the molecule `O=C(O)CCCCc1cc(CCCc2ccccc2)cs1`, the values for the inhibition in test [1] and in test [3] were 0% and 35%, respectively. For `O=C(O)CCCCCCc1sccc1CCCCCc1ccccc1`, in that order: 9% and 39%.

`O=C(O)CCCCCCc1cc(CCCc2ccccc2)cs1`: the inhibition was 42% in test [1] and 38% in test [3]. As to `O=C(O)CCCCCCc1csc(CCc2ccccc2)c1`, the inhibition in test [1] was determined as 49%.
